Data published in ChEMBL document CHEMBL1201862, “PubChem BioAssay data set” (2004).
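Dose response: 5 concentrations. Exposure: 48 h. Format: 96-well plates. Endpoint: linear interpolation; highest concentration if not reached. GI50 is the concentration that inhibits growth by half.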 The source made the active and inactive calls. Rule as the data show it: active = GI50 up to about 1.1 µM and inactive = higher.

Columns and labels:
Assay in all cases: NCI anticancer screen, dose series, 48 h
[1] = test system: HT-29
[2] = test system: SNB-19
[3] = test system: NCI-H522
[4] = test system: SF-295
[5] = test system: T47D
[6] = test system: RXF 393
[7] = test system: OVCAR-4
[8] = test system: NCI/ADR-RES
[9] = test system: SNB-75
[10] = test system: OVCAR-3
[11] = test system: ACHN
[12] = test system: RPMI-8226
[13] = test system: MCF7
[14] = test system: TK-10
[15] = test system: SK-MEL-5
[16] = test system: SK-MEL-2
[17] = test system: OVCAR-5
[18] = test system: NCI-H460
[19] = test system: MDA-MB-231
[20] = test system: MOLT-4
[21] = test system: HCT-15
[22] = test system: BT-549
[23] = test system: 786-0
[24] = test system: SK-OV-3
[25] = test system: HOP-92
[26] = test system: UACC-257
[27] = test system: A498
[28] = test system: SF-539
[29] = test system: U-251
[30] = test system: K562
[31] = test system: OVCAR-8
[32] = test system: A549
[33] = test system: Malme-3M
[34] = test system: M14
[35] = test system: HL-60
[36] = test system: EKVX
[37] = test system: SF-268
[38] = test system: CAKI-1
[39] = test system: HCT-116
[40] = test system: NCI-H23
[41] = test system: UO-31
[42] = test system: CCRF-CEM
[43] = test system: SN12C
[44] = test system: IGROV-1
[45] = test system: COLO 205
[46] = test system: PC-3
[47] = test system: Hs-578T
[48] = test system: SK-MEL-28
[49] = test system: KM12
[50] = test system: MDA-MB-435
[51] = test system: LOX IMVI
[52] = test system: NCI-H226
[53] = test system: HOP-62
[54] = test system: MDA-N
[55] = test system: SW-620
[56] = test system: DU-145
[57] = test system: SR
[58] = test system: UACC-62
[59] = test system: HCC 2998

Measured: GI50

O=C1/C(=C\c2ccc([N+](=O)[O-])o2)SC2NC(COc3ccc(Cl)cc3)=NN12 (configuration not stated)
inactive: [1] 6.05 µM | [2] 16.7 µM | [3] 2.22 µM | [4] 19.3 µM | [5] 1.79 µM | [6] 17.6 µM | [7] 1.87 µM | [8] 6.4 µM | [9] 15.5 µM | [10] 6.27 µM | [11] 1.96 µM | [12] 3.21 µM | [13] 2.12 µM | [14] 17.6 µM | [15] 12.8 µM | [16] 18.9 µM | [17] 21.2 µM | [18] 19.2 µM | [19] 3.31 µM | [20] 3.02 µM | [22] 9.84 µM | [23] 3.4 µM | [24] 24 µM | [25] 2.09 µM | [26] 5.09 µM | [27] 23.7 µM | [28] 4.1 µM | [29] 19.3 µM | [30] 2.99 µM | [31] 3.18 µM | [32] 18.3 µM | [33] 2.4 µM | [34] 2.31 µM | [35] 2.16 µM | [36] 5.83 µM | [37] 3.48 µM | [38] 13.1 µM | [39] 3.4 µM | [40] 10 µM | [41] 4.62 µM | [42] 1.99 µM | [43] 14 µM | [44] 3.15 µM | [45] 3.37 µM | [46] 9.73 µM | [47] 24.4 µM | [48] 4.17 µM | [49] 13.7 µM | [50] 4.2 µM | [51] 2.93 µM | [52] 18.6 µM | [53] 22.5 µM | [54] 3.48 µM | [55] 2.43 µM | [56] 12.9 µM | [57] 3.47 µM
2.07 µM: [21]

COc1ccc(/C=C(/C#N)C(N)=O)cc1OC
> 100 µM: [21]
inactive: [1] > 100 µM | [2] > 100 µM | [3] > 100 µM | [4] > 100 µM | [5] > 100 µM | [6] > 100 µM | [7] > 100 µM | [8] > 100 µM | [9] > 100 µM | [10] > 100 µM | [11] > 100 µM | [12] > 100 µM | [13] > 100 µM | [14] > 100 µM | [15] > 100 µM | [58] > 100 µM | [16] > 100 µM | [17] > 100 µM | [18] > 100 µM | [19] > 100 µM | [20] > 100 µM | [22] > 100 µM | [23] > 100 µM | [24] > 100 µM | [25] > 100 µM | [26] > 100 µM | [27] 72.6 µM | [28] > 100 µM | [29] > 100 µM | [30] > 100 µM | [31] > 100 µM | [32] > 100 µM | [33] > 100 µM | [34] > 100 µM | [35] > 100 µM | [36] > 100 µM | [37] > 100 µM | [38] > 100 µM | [39] > 100 µM | [40] > 100 µM | [42] 42.1 µM | [43] > 100 µM | [44] > 100 µM | [45] > 100 µM | [46] > 100 µM | [47] > 100 µM | [48] > 100 µM | [49] > 100 µM | [50] > 100 µM | [51] > 100 µM | [52] > 100 µM | [53] > 100 µM | [54] > 100 µM | [55] > 100 µM | [56] > 100 µM | [57] > 100 µM

O=C1/C(=C/c2ccccc2)Oc2cc(O)ccc21
inactive: [1] > 100 µM | [2] > 100 µM | [3] 70.3 µM | [4] > 100 µM | [5] > 100 µM | [6] > 100 µM | [7] > 100 µM | [8] > 100 µM | [9] > 100 µM | [10] > 100 µM | [11] > 100 µM | [12] > 100 µM | [13] > 100 µM | [14] > 100 µM | [15] > 100 µM | [58] > 100 µM | [18] > 100 µM | [19] > 100 µM | [20] > 100 µM | [22] > 100 µM | [23] > 100 µM | [24] > 100 µM | [26] > 100 µM | [28] > 100 µM | [29] > 100 µM | [30] > 100 µM | [31] > 100 µM | [32] > 100 µM | [34] > 100 µM | [35] > 100 µM | [36] > 100 µM | [37] > 100 µM | [38] > 100 µM | [39] > 100 µM | [40] > 100 µM | [41] > 100 µM | [42] > 100 µM | [43] > 100 µM | [44] > 100 µM | [45] > 100 µM | [46] > 100 µM | [47] > 100 µM | [48] > 100 µM | [49] > 100 µM | [50] > 100 µM | [52] > 100 µM | [59] > 100 µM | [53] > 100 µM | [54] > 100 µM | [55] > 100 µM | [56] > 100 µM | [57] > 100 µM
> 100 µM: [21]
